Measurements: the supplement of paper PMC10331698
± gives the standard deviation of the averaged measurements.

Columns and labels:
Assay in all cases: level (log10 ratio to DMSO vehicle control); higher = higher biomarker level / cell amount than vehicle control
[1] = compound: CCN(CCO)S(=O)(=O)C(F)(F)C(F)(F)C(F)(F)C(F)(F)C(F)(F)C(F)(F)C(F)(F)C(F)(F)F [N-Ethyl-N-(2-hydroxyethyl)perfluorooctanesulfonamide]; settings: in DMSO
Method: (§1)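 BioMAP Diversity Plus panel of 12 human primary cell co-culture systems (3C, 4H, LPS, SAg, BT, BF4T, BE3C, CASM3C, HDF3CGF, KF3CT, MyoF, Mphg). Compounds were added 1 h before stimulation and left for 24 h (MyoF 48 h; BT 72 h for soluble read-outs or 6 d for IgG). Biomarkers were read by ELISA, cytotoxicity by SRB, PBMC viability and proliferation by Alamar Blue. Each well value was divided by the mean of 8 DMSO control wells on the same plate and log10 transformed; duplicate blinded samples were tested at 4 concentrations.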

[2] = compound: OCCCC(F)(F)C(F)(F)C(F)(F)C(F)(F)C(F)(F)C(F)(F)C(F)(F)F [7:3 Fluorotelomer alcohol]; settings: 6700 nM; in DMSO
Method: as §1

Perfluorodecanoic acid = compound: O=C(O)C(F)(F)C(F)(F)C(F)(F)C(F)(F)C(F)(F)C(F)(F)C(F)(F)C(F)(F)C(F)(F)F [Perfluorodecanoic acid]; settings: in DMSO
Method: as §1

[3] = compound: FC(F)(F)C(F)(C(F)(F)F)C(F)(F)C(F)(F)CC1CO1 [3-(Perfluoro-3-methylbutyl)-1,2-propenoxide]; settings: in DMSO
Method: as §1

[4] = compound: OCC(F)(F)OC(F)(F)C(F)(F)OC(F)(F)CO [1H,1H,8H,8H-Perfluoro-3,6-dioxaoctane-1,8-diol]; settings: in DMSO
Method: as §1

Perfluoropropanoic acid = compound: O=C(O)C(F)(F)C(F)(F)F [Perfluoropropanoic acid]; settings: in DMSO
Method: as §1

[5] = compound: O=C(O)C(F)(F)OC(F)(F)C(F)(F)OC(F)(F)F [Perfluoro-3,6-dioxaheptanoic acid]; settings: in DMSO
Method: as §1

Q: Which “level (log10)” value ([1]; 6700 nM) does the source give for BE3C:IL-1alpha here?
A: 0.0165 ± 0.005

Q: What about the “level (log10)” value ([1]; 20000 nM) of the same test system?
A: -0.0485 ± 0.059

Q: What about the “level (log10)” value [2] of the same test system?
A: -0.002 ± 0.014

Q: And the “level (log10)” value (Perfluorodecanoic acid; 6700 nM)?
A: -0.0245 ± 0.00071

Q: What about the “level (log10)” value (Perfluorodecanoic acid; 20000 nM) of the same test system?
A: -0.811 ± 0.055

Q: What about the “level (log10)” value ([3]; 6700 nM) of the same test system?
A: 0.002 ± 0.025

Q: And the “level (log10)” value ([3]; 20000 nM)?
A: 0.023 ± 0.057

Q: What about the “level (log10)” value ([4]; 6700 nM) of the same test system?
A: 0.0105 ± 0.032

Q: What about the “level (log10)” value ([4]; 20000 nM) of the same test system?
A: 0.0055 ± 0.016

Q: What about the “level (log10)” value ([4]; 60000 nM) of the same test system?
A: 0.003 ± 0.0014

Q: And the “level (log10)” value (Perfluoropropanoic acid; 6700 nM)?
A: -0.019 ± 0.016

Q: And the “level (log10)” value (Perfluoropropanoic acid; 20000 nM)?
A: -0.021 ± 0.04

Q: What about the “level (log10)” value (Perfluoropropanoic acid; 60000 nM) of the same test system?
A: -0.0115 ± 0.023

Q: What about the “level (log10)” value ([5]; 6700 nM) of the same test system?
A: -0.035 ± 0.04

Q: And the “level (log10)” value ([5]; 20000 nM)?
A: -0.0345 ± 0.032

Q: And the “level (log10)” value ([5]; 60000 nM)?
A: -0.0385 ± 0.046

Q: What does the source list for BT:sTNF-alpha?
A: level (log10) ([1]; 6700 nM): -0.031 ± 0.082; level (log10) ([1]; 20000 nM): -0.312 ± 0.1; level (log10) [2]: 0.009 ± 0.028; level (log10) (Perfluorodecanoic acid; 6700 nM): 0.0625 ± 0.047; level (log10) (Perfluorodecanoic acid; 20000 nM): 0.018 ± 0.0099; level (log10) ([3]; 6700 nM): 0.0545 ± 0.076; level (log10) ([3]; 20000 nM): 0.0925 ± 0.093; level (log10) ([4]; 6700 nM): 0.17 ± 0.053; level (log10) ([4]; 20000 nM): 0.023 ± 0.19; level (log10) ([4]; 60000 nM): -0.036 ± 0.1; level (log10) (Perfluoropropanoic acid; 6700 nM): 0.0405 ± 0.06; level (log10) (Perfluoropropanoic acid; 20000 nM): 0.058 ± 0.096; level (log10) (Perfluoropropanoic acid; 60000 nM): -0.0255 ± 0.11; level (log10) ([5]; 6700 nM): 0.0935 ± 0.056; level (log10) ([5]; 20000 nM): 0.0375 ± 0.17; level (log10) ([5]; 60000 nM): 0.0755 ± 0.036

Q: With 4H:CCL2/MCP-1 as the test system, how does the “level (log10)” value ([1]; 6700 nM) read?
A: -0.007 ± 0.0099

Q: And the “level (log10)” value ([1]; 20000 nM)?
A: -0.159 ± 0.044

Q: And the “level (log10)” value [2]?
A: 0.025 ± 0.0099

Q: And the “level (log10)” value (Perfluorodecanoic acid; 6700 nM)?
A: -0.014 ± 0.0057

Q: What about the “level (log10)” value (Perfluorodecanoic acid; 20000 nM) of the same test system?
A: -0.0255 ± 0.03

Q: What about the “level (log10)” value ([3]; 6700 nM) of the same test system?
A: -0.038 ± 0.013

Q: And the “level (log10)” value ([3]; 20000 nM)?
A: 0.001 ± 0.042

Q: What about the “level (log10)” value ([4]; 6700 nM) of the same test system?
A: -0.037 ± 0.041

Q: What about the “level (log10)” value ([4]; 20000 nM) of the same test system?
A: -0.03 ± 0.013

Q: What about the “level (log10)” value ([4]; 60000 nM) of the same test system?
A: 0.008 ± 0.055

Q: What about the “level (log10)” value (Perfluoropropanoic acid; 6700 nM) of the same test system?
A: -0.0455 ± 0.022

Q: And the “level (log10)” value (Perfluoropropanoic acid; 20000 nM)?
A: -0.0145 ± 0.039

Q: And the “level (log10)” value (Perfluoropropanoic acid; 60000 nM)?
A: 0.0285 ± 0.039

Q: And the “level (log10)” value ([5]; 6700 nM)?
A: -0.0265 ± 0.037

Q: What about the “level (log10)” value ([5]; 20000 nM) of the same test system?
A: -0.0345 ± 0.018

Q: And the “level (log10)” value ([5]; 60000 nM)?
A: 0.031 ± 0.0085

Q: Which “level (log10)” value ([1]; 6700 nM) does the source give for BT:sIL-2 here?
A: -0.046 ± 0.03

Q: What about the “level (log10)” value ([1]; 20000 nM) of the same test system?
A: -0.339 ± 0.076

Q: What about the “level (log10)” value [2] of the same test system?
A: -0.037 ± 0.15

Q: What about the “level (log10)” value (Perfluorodecanoic acid; 6700 nM) of the same test system?
A: 0.008 ± 0.092

Q: And the “level (log10)” value (Perfluorodecanoic acid; 20000 nM)?
A: 0.118 ± 0.013

Q: And the “level (log10)” value ([3]; 6700 nM)?
A: -0.0405 ± 0.042

Q: What about the “level (log10)” value ([3]; 20000 nM) of the same test system?
A: 0.071 ± 0.072

Q: What about the “level (log10)” value ([4]; 6700 nM) of the same test system?
A: 0.002 ± 0.059

Q: What about the “level (log10)” value ([4]; 20000 nM) of the same test system?
A: -0.0075 ± 0.035

Q: And the “level (log10)” value ([4]; 60000 nM)?
A: 0.033 ± 0.042

Q: What about the “level (log10)” value (Perfluoropropanoic acid; 6700 nM) of the same test system?
A: 0.046 ± 0.016

Q: And the “level (log10)” value (Perfluoropropanoic acid; 20000 nM)?
A: -0.0205 ± 0.064

Q: What about the “level (log10)” value (Perfluoropropanoic acid; 60000 nM) of the same test system?
A: -0.007 ± 0.1

Q: What about the “level (log10)” value ([5]; 6700 nM) of the same test system?
A: 0.0035 ± 0.053

Q: And the “level (log10)” value ([5]; 20000 nM)?
A: 0.0105 ± 0.11

Q: What about the “level (log10)” value ([5]; 60000 nM) of the same test system?
A: 0.01 ± 0.072

Q: For BF4T:CD90, which “level (log10)” value ([1]; 6700 nM) is on record?
A: -0.013 ± 0.0099

Q: What about the “level (log10)” value ([1]; 20000 nM) of the same test system?
A: -0.0145 ± 0.005

Q: And the “level (log10)” value [2]?
A: -0.004 ± 0.0028

Q: And the “level (log10)” value (Perfluorodecanoic acid; 6700 nM)?
A: 0.003 ± 0.0042

Q: What about the “level (log10)” value (Perfluorodecanoic acid; 20000 nM) of the same test system?
A: -0.0955 ± 0.0064

Q: And the “level (log10)” value ([3]; 6700 nM)?
A: -0.0175 ± 0.00071

Q: And the “level (log10)” value ([3]; 20000 nM)?
A: -0.0165 ± 0.03

Q: What about the “level (log10)” value ([4]; 6700 nM) of the same test system?
A: -0.008 ± 0.027

Q: What about the “level (log10)” value ([4]; 20000 nM) of the same test system?
A: -0.008 ± 0.011

Q: What about the “level (log10)” value ([4]; 60000 nM) of the same test system?
A: -0.0015 ± 0.011

Q: And the “level (log10)” value (Perfluoropropanoic acid; 6700 nM)?
A: -0.003 ± 0.014

Q: What about the “level (log10)” value (Perfluoropropanoic acid; 20000 nM) of the same test system?
A: 0.003 ± 0.0014

Q: What about the “level (log10)” value (Perfluoropropanoic acid; 60000 nM) of the same test system?
A: 0 ± 0.016

Q: And the “level (log10)” value ([5]; 6700 nM)?
A: -0.012 ± 0.0042

Q: What about the “level (log10)” value ([5]; 20000 nM) of the same test system?
A: 0.001 ± 0.0099

Q: And the “level (log10)” value ([5]; 60000 nM)?
A: -0.011 ± 0.0014
